Measured values from PMC12311865, “In Vitro Evaluation of the Potential Interactions of Zearalenone-14-sulfate and Zearalenone-14-glucuronide with Human Cytochrome P450 Enzymes, Organic Anion Transporting Polypeptides, and ATP-Binding Cassette Multidrug Transporters” (ACS Omega, 2025).

Key:
CYP2C9 = molecular target: T1, CYP2C9 (Homo sapiens, UniProt P11712); assay: in vitro; assay type: biochemical; conditions: diclofenac 5 μM, 120 min
T1 construct: purchased Merck
Protocol: Inhibitory actions of ZEN conjugates on CYP2C9 and CYP3A4 enzymes were examined employing CypExpress Cytochrome P450 human kits. , Briefly, incubates (200 μL) contained the substrate (5 μM; diclofenac for CYP2C9 and testosterone for CYP3A4), the CypExpress reagent (6 mg/mL of CYP2C9 kit or 15 mg/mL of CYP3A4 kit; also including the glucose-6-phosphate dehydrogenase enzyme), and the test compounds (each 20 μM) in 0.05 M potassium phosphate buffer (pH 7.5). CYP3A4 assay was supplemented with additional G6P and NADP^+ (both 400 μM). Enzyme assays were started with the addition of the enzyme. After 120 min (CYP2C9) or 180 min (CYP3A4) incubation at 700 rpm and 30 °C in a thermomixer, the reaction was stopped with 100 μL of ice-cold methanol. Then, the samples were centrifuged for 10 min at 14,000g and room temperature. The supernatants were gently removed and directly analyzed by HPLC (see Section ).
Diclofenac and 4′-hydroxydiclofenac (CYP2C9 assay) were quantified using the previously reported HPLC-UV assay, , without modification. Briefly, the isocratic elution, with 1.0 mL/min flow rate, was performed with orthophosphoric acid (6 mM) and acetonitrile (48:52 v/v %) mobile phase, applying a Security Guard (C8, 4.0 × 3.0 mm; Phenomenex, Torrance, CA) precolumn and a Mediterranea Sea8 (C8, 150 × 4.6 mm, 5 μm; Teknokroma, Barcelona, Spain) analytical column at room temperature (injected volume: 20 μL). Diclofenac and 4′-hydroxydiclofenac were detected at 275 nm.

human MRP2 = molecular target: T2, human MRP2 (Homo sapiens, UniProt Q92887); assay: biochemical; assay type: biochemical; conditions: CDCF 5 μM
T2 construct: made in house; host or cells: Sf9 insect cells (baculovirus)
T2 sequence (Q92887 whole entry): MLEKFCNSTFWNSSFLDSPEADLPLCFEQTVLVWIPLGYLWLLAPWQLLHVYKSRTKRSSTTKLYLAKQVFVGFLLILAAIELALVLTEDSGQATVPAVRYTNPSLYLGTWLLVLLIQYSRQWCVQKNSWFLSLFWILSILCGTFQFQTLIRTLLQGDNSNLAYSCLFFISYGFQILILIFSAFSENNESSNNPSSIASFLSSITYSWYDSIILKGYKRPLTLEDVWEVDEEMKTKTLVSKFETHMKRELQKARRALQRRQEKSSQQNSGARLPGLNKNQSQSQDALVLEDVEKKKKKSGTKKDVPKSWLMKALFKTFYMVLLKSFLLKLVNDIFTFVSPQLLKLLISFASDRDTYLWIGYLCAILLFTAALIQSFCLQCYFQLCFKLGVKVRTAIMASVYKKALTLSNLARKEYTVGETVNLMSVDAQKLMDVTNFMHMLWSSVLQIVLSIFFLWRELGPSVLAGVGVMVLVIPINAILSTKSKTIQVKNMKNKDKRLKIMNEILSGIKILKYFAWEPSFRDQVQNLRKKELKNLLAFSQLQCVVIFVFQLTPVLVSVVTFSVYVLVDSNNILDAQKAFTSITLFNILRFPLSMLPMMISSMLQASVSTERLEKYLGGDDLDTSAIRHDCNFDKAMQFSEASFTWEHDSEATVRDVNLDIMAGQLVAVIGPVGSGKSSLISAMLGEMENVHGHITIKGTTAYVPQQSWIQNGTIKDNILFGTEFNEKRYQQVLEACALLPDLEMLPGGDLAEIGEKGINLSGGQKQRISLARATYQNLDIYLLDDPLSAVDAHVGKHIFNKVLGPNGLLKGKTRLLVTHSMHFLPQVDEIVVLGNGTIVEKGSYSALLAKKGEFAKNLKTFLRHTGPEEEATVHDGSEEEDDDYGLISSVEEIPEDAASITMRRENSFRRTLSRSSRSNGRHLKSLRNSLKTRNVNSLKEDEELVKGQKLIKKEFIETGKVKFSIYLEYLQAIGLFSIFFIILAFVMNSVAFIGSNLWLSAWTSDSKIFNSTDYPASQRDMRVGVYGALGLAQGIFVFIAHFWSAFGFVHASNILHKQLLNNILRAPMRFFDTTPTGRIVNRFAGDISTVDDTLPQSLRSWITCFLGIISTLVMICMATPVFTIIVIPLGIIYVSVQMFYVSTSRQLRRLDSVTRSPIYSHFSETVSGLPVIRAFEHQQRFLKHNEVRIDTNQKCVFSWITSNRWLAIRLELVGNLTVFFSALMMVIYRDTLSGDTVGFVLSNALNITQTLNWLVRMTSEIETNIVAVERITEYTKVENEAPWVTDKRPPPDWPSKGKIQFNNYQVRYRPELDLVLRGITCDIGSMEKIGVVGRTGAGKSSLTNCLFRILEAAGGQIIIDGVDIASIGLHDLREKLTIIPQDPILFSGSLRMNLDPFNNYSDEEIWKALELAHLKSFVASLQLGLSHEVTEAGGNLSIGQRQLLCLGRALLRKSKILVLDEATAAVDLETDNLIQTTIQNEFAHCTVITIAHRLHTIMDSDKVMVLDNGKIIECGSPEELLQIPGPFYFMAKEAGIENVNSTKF
Protocol: Experiments were performed in insect membrane vesicles, as described previously. Briefly, human MDR1, BCRP, and MRP2 were expressed in Sf9 insect cells by baculoviruses. On the third day of infection, cells were collected and membrane vesicles were obtained by mechanical disruption and differential centrifugation. To get full activity for BCRP, the cholesterol levels of the vesicles were adjusted to the level of mammalian membranes. Vesicles were stored at −80 °C, and the total protein content of the preparations was measured by the Lowry method (used as a reference for the quantity). […] A 100 μL volume of fluorescence stabilizer was added to the samples (DMSO for LY, 0.1 M H2SO4 for NMQ, and 0.1 M NaOH for CDCF). Fluorescence of samples was measured by plate readers (Victor X3 and Enspire PerkinElmer; Waltham, MA) at appropriate wavelengths (filters in the Victor X3 reader were 405/535 nm for LY and 492/635 nm for CDCF; while in the Enspire reader, NMQ was measured at 360/430 nm excitation/emission wavelengths). ABC-related transport was calculated by subtracting passive uptake measured without Mg-ATP from values measured in the presence of Mg-ATP.

T1 sequence (P11712 whole entry): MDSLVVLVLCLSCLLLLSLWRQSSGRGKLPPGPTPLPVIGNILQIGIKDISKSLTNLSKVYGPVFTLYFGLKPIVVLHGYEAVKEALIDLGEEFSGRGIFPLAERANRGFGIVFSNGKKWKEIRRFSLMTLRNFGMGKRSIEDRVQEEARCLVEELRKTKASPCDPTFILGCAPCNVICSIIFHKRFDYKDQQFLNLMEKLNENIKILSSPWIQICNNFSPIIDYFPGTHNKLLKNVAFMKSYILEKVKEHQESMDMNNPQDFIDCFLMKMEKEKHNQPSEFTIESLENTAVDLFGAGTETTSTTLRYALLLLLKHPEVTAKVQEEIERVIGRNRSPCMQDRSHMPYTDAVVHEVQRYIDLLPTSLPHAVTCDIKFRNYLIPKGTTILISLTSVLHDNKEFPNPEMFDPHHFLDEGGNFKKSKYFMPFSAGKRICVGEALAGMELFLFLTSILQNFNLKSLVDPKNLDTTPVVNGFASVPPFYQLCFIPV

| Compound | inhibition at 120 min, 20 μM (CYP2C9; human, pH 7.5, each 20 μM, read-out: inhibition of CYP2C9 (decrease in metabolite formation)) | effect on MRP2-dependent transport of CDCF (human MRP2; 0–50 μM) | inhibition of CYP2C9 (decrease in metabolite formation) (CYP2C9; each 20 μM) | IC50 (human MRP2; Sf9 membrane vesicles, read-out: IC50 for MRP2-mediated CDCF transport) |
| --- | --- | --- | --- | --- |
| C[C@H]1CCCC(=O)CCC/C=C/c2cc(OS(=O)(=O)O)cc(O)c2C(=O)O1 [Z14S, zearalenone-14-sulfate] | ~45% | weak inhibitory effect |  |  |
| C[C@H]1CCCC(=O)CCC/C=C/c2cc(O[C@@H]3O[C@H](C(=O)O)[C@@H](O)[C@H](O)[C@H]3O)cc(O)c2C(=O)O1 [Z14GA, Zearalenone-14-glucuronide] |  |  | no effects | > 10 µM |
